# In patent publication US20260242390A1, “TOTAL SYNTHESES OF PORTIMINE A AND ANALOGUES THEREOF AS SMALL MOLECULE MODULATORS OF NMD3” (priority 2023, published 2026):
# How the values were obtained:
# MC38 colon carcinoma = assay: MC38 Syngeneic Tumor Xenograft Model; type: in vivo, mouse; settings: 0.3 or 1.0 mg/kg, i.p.
# Experimental: FIG. 4. Validation of NMD3 as target of Portimine A by Chemo-precipitation (ChP). Portimine A mouse pharmacokinetic properties and fast acting in vitro cell-based target engagement properties based on compound wash-out. (A) Pharmacokinetic studies of mouse intraperitoneal (i.p.) and oral (p.o.) administration for portimine (n=3). […] Impact of PA [0.3 or 1 mg/kg intraperitoneally] on MC38 tumor growth in WT mice (n=6). (C) Kaplan-Myer survival curve of WT MC38 tumor-bearing mice (n=6) after treatment with PA as described in (D). Mice were euthanized when tumor area exceeded 2000 mm^3. Statistical analysis was performed using ANOVA analysis followed by multiple comparisons test, * p≤0.05. Treatment condition: Jurkat (60 M per condition); PA-DA/ePA-DA concentration: 0.5 uM, PA or ePA: 5 uM; Incubate with probe with or without competitors (PA, ePA) for 30 min; UV irradiated for 20 min. (0.5 uM PA-DA add a no-UV condition); Standard pulldown & biotin-enrichment and western blot analysis (Elute condition: 2× sample buffer+500 uM biotin, boil for 20 mins); Primary antibody NMD3 (ProteinTech, 1:150), Actin (BioRad, 1:10000).
# FIG. 9. […] (A) Systemic Portimine A in MC38 Syngeneic Tumor Xenograft Model; and (B) Systemic Portimine A in HT-1080 Tumor Xenograft Model. […]
# [1] = in vivo; cited from earlier work
compound,measurement,setting,value
"C=CC1=C[C@@H]2[C@@H]3O[C@]4(CC[C@H](O4)C(C)C[C@@H](O)C3=O)CC(O)C3=NCC[C@@]32CC1 (some centres unmarked) [PA, portimine A]","anti-tumor activity, MC38 colon carcinoma syngeneic model",MC38 colon carcinoma,Potent anti-tumor activity
same,LD50,[1],1.57 mg/kg
